# Assays:
# Type in all cases: in vivo
# [1] = tested on: nutsedge, yellow (yellow nutsedge, Cyperus esculentus); assay: Test C pre-/postemergence: nutsedge, yellow
# Method in brief: (§1)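 Preemergence on seeds in loam/sand, postemergence on 2–18 cm (1–4-leaf) plants in peat-based medium; compounds in non-phytotoxic solvent with surfactant. After 13–15 days in greenhouse, visual rating versus controls, 0 (no effect) to 100 (complete control).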
# [2] = tested on: ryegrass, Italian (Italian ryegrass, Lolium multiflorum); assay: Test C pre-/postemergence: ryegrass, Italian
# Method in brief: as §1
# [3] = tested on: morningglory (Ipomoea spp.); assay: Test A pre-/postemergence: morningglory; conditions: Preemergence
# Method in brief: (§2)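 Plants in loam–sand blend were treated with test chemicals in non-phytotoxic solvent with surfactant, either as preemergence directed soil spray or postemergence at 2–10 cm, one- to two-leaf stage. After about ten days in greenhouse, injury was rated visually against untreated controls on a 0–100 scale (100 = complete control).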
# [4] = tested on: galium (catchweed bedstraw, Galium aparine); assay: Test C pre-/postemergence: galium
# Method in brief: as §1
# [5] = tested on: winter wheat (Triticum aestivum); assay: Test C pre-/postemergence: winter wheat
# Method in brief: as §1
# [6] = tested on: barnyardgrass (Echinochloa crus-galli); assay: Test A pre-/postemergence: barnyardgrass
# Method in brief: as §2
# kochia (Kochia scoparia) = assay: Test C pre-/postemergence: kochia; conditions: Postemergence
# Method in brief: as §1
# [7] = tested on: johnsongrass (Sorghum halepense); assay: Test C pre-/postemergence: johnsongrass
# Method in brief: as §1
# [8] = tested on: large crabgrass (Digitaria sanguinalis); assay: Test C pre-/postemergence: large crabgrass
# Method in brief: as §1
# corn (Zea mays) = assay: Test A pre-/postemergence: corn
# Method in brief: as §2
# [9] = tested on: pigweed (Amaranthus retroflexus); assay: Test C pre-/postemergence: pigweed
# Method in brief: as §1
# [10] = Postemergence, 31 g ai/ha, scale 0 to 100 (0 no effect, 100 complete control)
# [11] = Postemergence, 62 g ai/ha, scale 0 to 100 (0 no effect, 100 complete control)
# [12] = Postemergence, 125 g ai/ha, scale 0 to 100, 0 no effect, 100 complete control
# [13] = Postemergence, 250 g ai/ha, scale 0 to 100 (0 no effect, 100 complete control)
# [14] = Preemergence, 31 g ai/ha, scale 0 (no effect) to 100 (complete control)
# [15] = Preemergence, 62 g ai/ha, scale of 0 to 100, 0 is no effect, 100 is complete control
# [16] = Preemergence, 125 g ai/ha, scale 0 to 100, 0 no effect, 100 complete control
# [17] = Preemergence, 250 g ai/ha, scale 0 to 100, 0 no effect, 100 complete control
# [18] = Postemergence, 125 g ai/ha, 0 to 100 scale, 0 is no effect, 100 is complete control
# [19] = Postemergence, 500 g ai/ha, 0 to 100 scale, 0 is no effect, 100 is complete control
# [20] = Preemergence, 125 g ai/ha, 0 to 100 scale where 0 is no effect and 100 is complete control
# [21] = Preemergence, 500 g ai/ha, 0 to 100 scale (0 no effect, 100 complete control)
smiles,measurement,setting,value
CCCc1nn(-c2ccc(F)cc2)nc1Oc1ccnc(C(F)(F)F)c1 [Compound 168],"Plant response rating, Nutsedge, Yellow",[1]; [10],10
same,"Plant response rating, Nutsedge, Yellow",[1]; [11],10
same,"Plant response rating, Nutsedge, Yellow",[1]; [12],15
same,"Plant response rating, Nutsedge, Yellow",[1]; [13],20
same,"Plant response rating, Nutsedge, Yellow",[1]; [14],0
same,"Plant response rating, Nutsedge, Yellow",[1]; [15],0
same,"Plant response rating, Nutsedge, Yellow",[1]; [16],5
same,"Plant response rating, Nutsedge, Yellow",[1]; [17],5
same,"Plant response rating, Ryegrass, Italian",[2]; [10],10
same,"Plant response rating, Ryegrass, Italian",[2]; [11],35
same,"Plant response rating, Ryegrass, Italian",[2]; [12],60
same,"Plant response rating, Ryegrass, Italian",[2]; [13],80
same,"Plant response rating, Ryegrass, Italian",[2]; [14],70
same,"Plant response rating, Ryegrass, Italian",[2]; [15],98
same,"Plant response rating, Ryegrass, Italian",[2]; [16],100
same,"Plant response rating, Ryegrass, Italian",[2]; [17],100
same,"Plant response rating, Morningglory","[3]; 125 g ai/ha, 0 to 100 scale where 0 is no effect and 100 is complete control",20
same,"Plant response rating, Morningglory","[3]; 500 g ai/ha, 0 to 100 scale (0 no effect, 100 complete control)",50
same,"Plant response rating, Galium",[4]; [10],90
same,"Plant response rating, Galium",[4]; [11],90
same,"Plant response rating, Galium",[4]; [12],90
same,"Plant response rating, Galium",[4]; [13],95
same,"Plant response rating, Galium",[4]; [14],85
same,"Plant response rating, Galium",[4]; [15],100
same,"Plant response rating, Galium",[4]; [16],100
same,"Plant response rating, Galium",[4]; [17],100
same,"Plant response rating, Wheat",[5]; [10],20
same,"Plant response rating, Wheat",[5]; [11],20
same,"Plant response rating, Wheat",[5]; [12],35
same,"Plant response rating, Wheat",[5]; [13],45
same,"Plant response rating, Wheat",[5]; [14],5
same,"Plant response rating, Wheat",[5]; [15],40
same,"Plant response rating, Wheat",[5]; [16],40
same,"Plant response rating, Wheat",[5]; [17],60
same,"Plant response rating, Barnyardgrass",[6]; [18],90
same,Barnyardgrass plant response rating,[6]; [19],90
same,"Plant response rating, Barnyardgrass",[6]; [20],90
same,"Plant response rating, Barnyardgrass",[6]; [21],100
same,"Plant response rating, Kochia","kochia (Kochia scoparia); 31 g ai/ha, scale 0 to 100 (0 no effect, 100 complete control)",90
same,"Plant response rating, Kochia","kochia (Kochia scoparia); 62 g ai/ha, scale 0 to 100 (0 no effect, 100 complete control)",90
same,"Plant response rating, Kochia","kochia (Kochia scoparia); 125 g ai/ha, scale 0 to 100, 0 no effect, 100 complete control",90
same,"Plant response rating, Kochia","kochia (Kochia scoparia); 250 g ai/ha, scale 0 to 100 (0 no effect, 100 complete control)",90
same,"Plant response rating, Johnsongrass",[7]; [10],30
same,"Plant response rating, Johnsongrass",[7]; [11],55
same,"Plant response rating, Johnsongrass",[7]; [12],70
same,"Plant response rating, Johnsongrass",[7]; [13],75
same,"Plant response rating, Johnsongrass",[7]; [14],75
same,"Plant response rating, Johnsongrass",[7]; [15],98
same,"Plant response rating, Johnsongrass",[7]; [16],100
same,"Plant response rating, Johnsongrass",[7]; [17],100
same,"Plant response rating, Crabgrass, Large",[8]; [10],30
same,"Plant response rating, Crabgrass, Large",[8]; [11],65
same,"Plant response rating, Crabgrass, Large",[8]; [12],95
same,"Plant response rating, Crabgrass, Large","[8]; Postemergence, 250 g ai/ha, scale 0 to 100",95
same,"Plant response rating, Crabgrass, Large",[8]; [14],100
same,"Plant response rating, Crabgrass, Large",[8]; [15],100
same,"Plant response rating, Crabgrass, Large",[8]; [16],100
same,"Plant response rating, Crabgrass, Large",[8]; [17],100
same,"Plant response rating, Corn",corn (Zea mays); [18],20
same,Corn plant response rating,corn (Zea mays); [19],50
same,"Plant response rating, Corn",corn (Zea mays); [20],20
same,"Plant response rating, Corn",corn (Zea mays); [21],40
same,"Plant response rating, Pigweed",[9]; [10],80
same,"Plant response rating, Pigweed",[9]; [11],98
same,"Plant response rating, Pigweed",[9]; [12],98
same,"Plant response rating, Pigweed",[9]; [13],98
same,"Plant response rating, Pigweed",[9]; [14],100
same,"Plant response rating, Pigweed",[9]; [15],100
same,"Plant response rating, Pigweed",[9]; [16],100
same,"Plant response rating, Pigweed",[9]; [17],100

# — US9302999B2, “Substituted triazoles as herbicides” (E. I. DU PONT DE NEMOURS AND COMPANY, priority 2012, dated 2016)
